Source: patent publication US8187822B2, “Methods to identify modulators” (Givaudan S.A., priority 2007, dated 2012)

Experiments:
[1] = system: bitter-sensitive panelists; test: Sensory evaluation of bitter blocking in sucralose solution (forced choice); type: in vivo, human; details: for perceived bitterness of sucralose, in words: 13 ppm in 3 mM sucralose solution
Experimental: The bitter blocking capability of test cpd A (13 ppm) in sucralose (3 mM) solution was evaluated. Twenty ml of each solution (sucralose or sucralose with test cpd A) was presented in random order to 15 bitter-sensitive panelists. In two replications, panelists were asked to select the solution they perceived as more bitter. A beta-binomial analysis was calculated from the forced-choice data to correct for overdispersion. Because panelists evaluated bitterness over 2 replications, the data was subjected to a beta-binomial d′ analysis to determine whether over-dispersion occurred. Not accounting for over-dispersion has the potential to underestimate the significance level at which a test is conducted and therefore lead to false-positive results. The analysis refuted overdispersion (gamma=0.00; p=0.109) and no adjustments were necessary.

[2] = target: T1, TAS2R10 (Homo sapiens, UniProt Q9NYW0); test: Fluo-4 calcium assay, HEK293T cells stably expressing Gα16-gustducin44 and TAS2R10; type: cell-based
T1 construct: The full length gene of human TAS2R44 was amplified by polymerase chain reaction (PCR) using gene-specific primers that span the entire coding region; RSS tag (first 45 amino acids of rat somatostatin receptor subtype 3) (N); expressed in transfected cells
T1 sequence (Q9NYW0 1-307): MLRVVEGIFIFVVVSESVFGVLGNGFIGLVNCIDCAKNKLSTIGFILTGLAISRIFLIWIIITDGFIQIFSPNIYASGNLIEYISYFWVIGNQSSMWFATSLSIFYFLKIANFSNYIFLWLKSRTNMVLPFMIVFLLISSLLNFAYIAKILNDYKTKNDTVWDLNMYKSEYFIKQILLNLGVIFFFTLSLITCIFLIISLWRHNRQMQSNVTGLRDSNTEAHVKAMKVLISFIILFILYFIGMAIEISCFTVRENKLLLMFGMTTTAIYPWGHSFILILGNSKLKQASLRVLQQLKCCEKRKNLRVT

[3] = target: T2, TAS2R1 (Homo sapiens, UniProt Q9NYW7); test: Fluo-4 calcium assay, HEK293T cells stably expressing Gα16-gustducin44 and TAS2R1; type: cell-based
T2 construct: The full length gene of human TAS2R44 was amplified by polymerase chain reaction (PCR) using gene-specific primers that span the entire coding region; RSS tag (first 45 amino acids of rat somatostatin receptor subtype 3) (N); expressed in transfected cells
T2 sequence (Q9NYW7 1-299): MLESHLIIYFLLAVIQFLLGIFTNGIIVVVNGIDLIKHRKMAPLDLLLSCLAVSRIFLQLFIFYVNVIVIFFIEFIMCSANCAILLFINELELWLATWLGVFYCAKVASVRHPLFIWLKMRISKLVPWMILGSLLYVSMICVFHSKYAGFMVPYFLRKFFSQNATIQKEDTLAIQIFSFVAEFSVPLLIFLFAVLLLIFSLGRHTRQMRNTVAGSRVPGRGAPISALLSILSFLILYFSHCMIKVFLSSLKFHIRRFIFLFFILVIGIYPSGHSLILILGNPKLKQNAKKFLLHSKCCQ
Experimental: Cell lines that stably expresses a SABR (TAS2R44, TAS2R1, TAS2R10) was generated by transfecting pcDNA3.1Zeo-SABR into HEK293T/Gα16-gustducin 44 cells (both formed as described in example 1). The host cell line HEK-293T is commercially available from the American Tissue Culture Collection (ATCC), ATCC®# CRL-11268.
TAS2R1 expressing cells were identified by their response to 0.5 mM chloramphenicol (a known TAS2R1 agonist as described in WO 2006/053771) in addition to sucralose, which was determined via automated fluorimetric imaging on the FLIPR-Tetra instrumentation (Molecular Devices) using the methods described in Example 3. One clone was selected resulting in the HEK293T/Gα16-gustducin 44/TAS2R1 cell line.
At day 0, the HEK293T cell line expressing Gα16-gustducin44 and a TAS2R bitter taste receptor formed as described in examples 2b or 2c was seeded in antibiotic-free growth medium (standard DMEM with 10% (v/v) heat-inactivated fetal bovine serum, 2 mM L-glutamine[…]) into black wall/clear bottom 96-well plates, coated with poly(ethylenimine) (0.005% v/v) at a concentration of 15,000 cells per well and incubated for 48 hours in humidified atmosphere (37° C., 5% CO2).
At the time of the assay, the growth medium was discarded and the cells were in humidified atmosphere (37° C., 5% CO2) for 1 hour with 50 μl of loading buffer consisting of 1.5 μM Fluo-4 AM and […] probenicid (Sigma-Aldrich, St. Louis, Mo., US) in DMEM.
Afterwards, the 96-well plate was washed 5 times with 100 μl of assay buffer (130 mM NaCl, 5 mM KCl, 10 mM HEPES, 2 mM CaCl2, and 5 mM dextrose, pH 7.4) per well, using an automated plate washer (BioTek). The plate was further incubated for 30 minutes at room temperature in the dark to allow for complete de-esterification of the Fluo-4. Afterwards the plate was washed 5 times with 100 μl of assay buffer per well, and reconstituted with 100 μl of assay buffer per well.
For assay reading, the plate was placed in a Fluorometric Imaging Plate Reader (FLIPR) (FLIPR-TETRA™, Molecular Devices, Sunnyvale, Calif., US), and receptor activation was initiated by addition of 100 μl of a twofold concentrated agonist stock solution (to give the desired agonist end concentration when added to the 100 microliter assay buffer volume), which was prepared in assay buffer.
Fluorescence was continuously monitored for 20 seconds to give a signal baseline (averaged to give F0) prior to agonist addition and for 120 seconds after agonist addition. The change in signal divided by F0 gives ΔF/F0 indicated in the table, with ΔF being the maximum signal occurring within the 120 seconds minus the minimum signal (occurring within the 120 seconds after agonist addition.
All data was collected from at least two independent experiments each carried out in triplicate.
The obtained calcium signals were corrected for the response of cells expressing only the G Protein α subunit (Gα16-gustducin44) and normalized to the fluorescence of cells prior to the stimulus using ΔF/F0 (Fmax−Fmin/F0).
The intracellular calcium response following addition of sucralose was determined in HEK293T cell line stably expressing Gα16-gustducin44 and TAS2R1 formed as described in example 2c.

CC1=CCC(C/C=C/C(=O)O)C1(C)C (stereo not drawn) [test cpd A, (E)-4-(2,2,3-trimethylcyclopent-3-enyl)but-2-enoic acid]
perceived bitterness of sucralose, in words [1]: reduced the perceived bitterness | perceived bitterness of sucralose, in words ([1]; listed as (E)-4-(2,2,3-trimethylcyclopent-3-enyl)but-2-enoic acid): significantly reduce the bitter aftertaste of sucralose | evaluations selecting the solution with test compound as less bitter than 3 mM sucralose solution ([1]; 13 ppm in 3 mM sucralose, 15 panelists, 2 replications, p<0.05): 22 of 30 | d′ ([1]; 13 ppm in 3 mM sucralose, forced choice): 0.88±0.12

OC[C@H]1O[C@H](O[C@]2(CCl)O[C@H](CCl)[C@@H](O)[C@@H]2O)[C@H](O)[C@@H](O)[C@H]1Cl [Sucralose, sucralose]
calcium signaling in TAS2R10 cells, in words [2]: significant concentration-dependent increase in calcium signaling | TAS2R10 ΔF/F0 ([2]; sucralose 0.3906 mM): 0.050 | TAS2R10 ΔF/F0 ([2]; sucralose 0.7813 mM): 0.050 | TAS2R10 ΔF/F0 ([2]; sucralose 1.5625 mM): 0.047 | TAS2R10 ΔF/F0 ([2]; sucralose 3.1250 mM): 0.053 | TAS2R10 ΔF/F0 ([2]; sucralose 6.2500 mM): 0.053 | TAS2R10 ΔF/F0 ([2]; sucralose 12.5000 mM): 0.059 | TAS2R10 ΔF/F0 ([2]; sucralose 25.0000 mM): 0.087 | TAS2R10 ΔF/F0 ([2]; sucralose 50.0000 mM): 0.212 | TAS2R10 ΔF/F0 ([2]; sucralose 100.0000 mM): 0.437 | calcium signaling in TAS2R1 cells, in words [3]: significant concentration-dependent increase in calcium signaling | TAS2R1 ΔF/F0 ([3]; sucralose 0.3906 mM): 0.052 | TAS2R1 ΔF/F0 ([3]; sucralose 0.7813 mM): 0.050 | TAS2R1 ΔF/F0 ([3]; sucralose 1.5625 mM): 0.047 | TAS2R1 ΔF/F0 ([3]; sucralose 3.1250 mM): 0.059 | TAS2R1 ΔF/F0 ([3]; sucralose 6.2500 mM): 0.061 | TAS2R1 ΔF/F0 ([3]; sucralose 12.5000 mM): 0.072 | TAS2R1 ΔF/F0 ([3]; sucralose 25.0000 mM): 0.104 | TAS2R1 ΔF/F0 ([3]; sucralose 50.0000 mM): 0.197 | TAS2R1 ΔF/F0 ([3]; sucralose 100.0000 mM): 0.518
